These results are taken from article PMC12566971, “Polyprenylated Acylphloroglucinols from Hypericum rochelii and Hypericum olympicum—Cytotoxic Effects on Non-Tumorigenic Cell Lines and Antibacterial Potential” (Pharmaceuticals, 2025).

For one series, the system named is Enterococcus faecalis. As to conditions: ref [4],[29]; cited from earlier work.
Series [1] relates to Methicillin-Resistant S. aureus (MRSA). Description: MIC and MBC evaluation (broth microdilution, agar plate assay). It counts as cell-based, Staphylococcus aureus. As to the method:
The MIC and MBC assessment on the pathogenic bacteria and the candidate probiotic lactic acid bacteria was carried out by the broth microdilution assay (BMD) and the agar plate assay, respectively, as described in [4]. The metabolic (dehydrogenase) activity of the lactic acid bacteria was assessed as described in [4].
P. aeruginosa PAO1 ATCC 15692 was purchased from the American Type Cell Culture Collection (ATCC, Manassas, VA, USA). S. mutans DSM 20523 was bought from the German Collection of Microorganisms and Cell Cultures (DSMZ GmbH, Braunschweig, Germany). All other bacteria and strains were purchased as described in [4].
Background: In broth dilution the organism is exposed to a series of concentrations in liquid medium.

For another series, the system named is HEK-293 cells. In words: Colony-forming unit assay. The series is classed as cell-based, human. As to conditions: for Percentage of colonies, HEK-293: untreated control = 100%. On the procedure: The CFU was also performed according to ISO 10993-5 [56]. Briefly, the cell lines were seeded at a concentration like for the MTT assay in 6-well plates, treated with the chosen agents and left for a 48 h exposure. Then, the cells were trypsinized, and pre-calculated 20 to 100 µL from the cell suspension was added to a sterile Roswell Park Memorial Institute (RPMI) medium (RPMI-A, Capricorn Scientific), containing 20% of the respective cell culture medium for each cell line but with a final concentration of FBS and L-glutamine of 40–42% and 0.8–1.2 mM, respectively, 0.2% NaHCO3 (S6297, Merck Sigma-Aldrich, Saint Louis, MI, USA), and 0.8% methylcellulose (M0512, Merck Sigma-Aldrich) for viscosity. The viscous cell solution was vortexed for 10 s and dispensed in an equal number of cells per well in 6-well plates (1.2 mL per well) in triplicate for each concentration of treatment. HaCaT and HEK-293 were seeded at a concentration of 2500 cells per mL, CCL-1 and HEPG2—2000 cells per mL, and HGF—1000 cells per mL. The plates were incubated for 6 to 10 days, and when the colonies reached 20 to 50 cells per colony, 100 µL MTT salt solution was added to each well. After half an hour, the stained colonies were counted manually using a microscope.

For a further series, the system named is CCL-1. Description: MTT assay for cytotoxicity. It counts as cell-based, murine. On the procedure:
The MTT assay was performed according to Annex C, ISO 10993-5 [56] as in [116]. The panel of non-tumorigenic cell lines consisted of one murine (CCL-1 fibroblasts, which are recommended as a standard for cytotoxicity evaluation in Annex C of ISO 10993-5 [56]) and four human cell lines—HaCaT (immortalized epidermal keratinocytes), HGF (gingival fibroblasts), HEK-293 (embryonic cells from kidney epithelium), and HEPG2 (hepatoblastoma). Although technically a cancer cell line, HEPG2 is non-tumorigenic and retains many hepatocyte-related features in its proteome and a high degree of morphological and functional differentiation, also being a stage one hepatoblastoma.
CCL-1 was purchased from ATCC and HaCaT and HGF were bought from CLS Cell Lines Service (GmbH, Eppelheim, Germany). HEK-293 and HEPG2 were obtained from DSMZ. The cell culture medium for HaCaT and HEPG2 was Dulbecco’s Modified Eagle Medium (DMEM) with 4.5 g/L glucose (DMEM-HA). For HGF it was DMEM/F-12 (DMEM-12-A, a 1:1 mixture of DMEM and Ham’s F-12 medium). The cell medium for CCL-1 and HEK-293 was Eagle’s Minimum Essential Medium (MEM) (MEM-A). Ten percent heat-inactivated fetal bovine serum (FBS) was added to all media but to the one for the CCL-1 cells, to which 10% heat-inactivated horse serum was added. All media were supplemented with 2 mM L-glutamine and Penicillin/Streptomycin (Pen/Strep, 100×). The cell culture media, sera, and additives were from Capricorn Scientific (Düsseldorf, Germany).
GraphPad Prism software version 9 (GraphPad Software Inc., San Diego, CA, USA) was used to calculate the IC50 values from the MTT assays as in [116], as well as the MTC values, and the ELISA standard curves. The MTC values are, according to ISO 10993-5, the maximum concentration at which at least 70% of the cells are viable (nonlin fit, range).
(In general: Tetrazolium assays rely on reduction of a dye to a coloured formazan, in cell work by metabolically active cells.)

The next series concerns S. aureus. In words: Time kill assay. It counts as cell-based, Staphylococcus aureus. As to the method: A time kill assay was performed according to the modified protocol of Sendi and Ruppen, 2015 [137]. […] From these dilutions, 25 µL was seeded in brain heart infusion agar in a well of a 12-well plate. An untreated control was plated in the same way. Then, the bacterial suspension (treated and untreated) was placed in an incubator (MLW Kombinat, Leipzig, Germany) at 37 °C. Again, 25 µL of it was taken for seeding after 1, 2, 3, 4, 6, and 24 h, which equals a total of 7 time points. After 16–24 h of incubation, the colonies in the seeded plates from all dilutions were counted, and the number of colony-forming units (CFU) per mL, or in other words, bacteria per mL, was calculated.

Another series deals with human CYP450 3A4 isoform. In words: ELISA for cytochrome P450 3A4 in HEPG2 cells. The series is classed as in vitro ADME. As to the method: The effect on CYP450 was tested using the ELISA method on the HEPG2 liver cell line. As mentioned, it has weak or absent expression of the CYP450 superfamily, e.g., CYP3A4, CYP1A2, etc., and that low basal activity makes it a good model for studies of CYP inducers. In addition, these cells have the advantage of immortalization due to their cancerous nature. The standard curves after the two ELISA tests (Figure S7) were prepared as a standard dose–response curve, also called a four-parameter logistic (4-PL) curve.
The effect on human cytochrome P450 3A4, the major member of the CYP450 superfamily of enzymes, which is predominantly found in the liver and metabolizes approximately half of the drugs metabolized by CYP450 enzymes, was assayed using the CYP3A4 ELISA Kit (DL-CYP3A4-Hu, DLdevelop, Kelowna, BC, Canada). Sample selection and initial preparation were as for the total cytochrome ELISA. The experiment was performed according to the manufacturer’s instructions. This assay is a sandwich enzyme immunoassay based on the binding of CYP3A4 in standards and samples to a biotin-conjugated antibody specific for CYP3A4. […] The reaction was stopped by adding sulfuric acid solution, and the plate was read at 450 nm on a microplate reader ELx800 (BioTek Instruments, Inc.). The CYP3A4 concentration was determined by comparing the O.D. of the samples with the standard curve.

Structures are written as SMILES. In brackets after ≈: the same amount, converted by molar mass. Several values for one entry are separate records, joined by “and”; a condition that tells them apart may be missing. Equal values may be shown once.

As to `CC(C)=CCCC1(C)C(CC=C(C)C)CC2C(=O)C1(C(=O)C(C)C)C(=O)C(CC=C(C)C)=C2O` (stereo not drawn) [Olympiforin B], the “MIC on bacteria, E. faecalis” value in the series with Enterococcus faecalis is reported as 4 µg/mL (≈ 8.53 µM). Besides, the MBC in series [1] (Staphylococcus aureus, MRSA) was 68 µg/mL and 121 µM. Further, in series [1] (bactericidal if ≤ 4, bacteriostatic if > 4), the “MBC/MIC ratio, MRSA” value was 68. Moreover, the “Colonies per well for HEK-293 cells” value with HEK-293 cells (1/2 × IC50, 48 h exposure) was 102; in the series with HEK-293 cells (2 × IC50, 48 h exposure), 80; with HEK-293 cells (IC50, 48 h exposure) it was 99. The “Percentage of colonies, HEK-293” value stood at 97% in the series on HEK-293 cells (1/2 × IC50), 77% in the series on HEK-293 cells (2 × IC50) and 95% in the series on HEK-293 cells (IC50). In addition, the IC50 in the series on CCL-1 (Mus musculus, MTT assay) came out at 5.5 µg/mL (≈ 11.7 µM). For the same compound, the “Maximum tolerated concentration (MTC), CCL-1” value in the series on CCL-1 (at least 70% of cells viable, ISO 10993-5) stood at 4.79 µg/mL. Moreover, in the series with S. aureus (1/2 × MBC, 24 h), the “Bacteria remaining in time kill assay” value is given as 302,000 CFU/mL. In addition, the “Outcome of time kill assay” value in the series with S. aureus (MBC concentration, by 24 h) is recorded as “killed all bacteria”. Further, the “CYP450 3A4, Mean Diff. Co vs. agent (Tukey)” value in the series with human CYP450 3A4 isoform (2×MIC, control minus treated) is listed as 0.000325. In the series on human CYP450 3A4 isoform (HEPG2, 24 h, concentrations inhibiting S. aureus), the “Induction of CYP450 3A4” value was “hardly induce”.

The term MBC denotes the lowest tested concentration that kills the bacteria rather than only halting them. Read a low MBC as more potent killing. The IC50 is the concentration that gives 50% inhibition.
